The subject of assay [1] is Caki-2 cells. Briefly: CTG (CellTiter-Glo) cell viability assay, Caki-2. In kind it is cell-based. The following applies: Homo sapiens, CAKI-2, 72 h, Caki-2, 3-day; read-out: CTG Chempartner/PHA- Caki-2 3-day: Average external-IC50. The procedure: (§1) Compound-mediated viability effect on MOLT-4 and Caki-2 was quantitatively determined using the CellTiter-Glo® Luminescent Cell Viability Assay kit from Promega (Catalog number G7570) following manufacturer's recommended procedures. Briefly, MOLT-4 and Caki-2 cells were seeded into 384 well plates (Grenier Bio-One, Catalog number 781080) with a density of 10,000 cells per well. Compounds were then added to the assay plate with final top concentration of 10 µM and 1:3 dilution series with total of 9 doses. The final DMSO concentration is normalized to 0.2%. The assay plates were incubated at 37° C. for 3 days under 5% CO2. Then the assay plate was equilibrated at room temperature for 10 minutes. To determine cell viability, 30 uL CellTiter Glo reagent was added to each well and the assay plate was centrifuged at 1000 rpm for 30 second, incubated at room temperature for 10 min, and analyzed by detecting the luminescence using a multimode plate reader (EnVision 2105, PerkinElmer). The data was then analyzed by software Prism 7.0 from GraphPad and the dose response curves are fit using a three-parameter logistic equation to calculate IC50.
(§2) The letter codes for MOLT-4 IC50 include: A (<0.1 μM); B (0.1-1.0 μM); C (>1.0-3.0 μM); and D (>3.0 μM). The letter codes for Caki-2 IC50 include: A (<5 μM); B (5-10 μM); C (>10-30.0 μM); and D (>30.0 μM).
For orientation: Cellular ATP, detected with luciferase, serves as a proxy for viable cell number.

The test system of assay [2] is MOLT-4 cells. Briefly: CTG (CellTiter-Glo) cell viability assay, MOLT-4. In kind it is cell-based. The following applies: MOLT-4, 3 day, read-out: CTG Cell Viability Assay - MOLT-4 3 day: Average external-IC50. The protocol: as §1, §2

The structures appear in SMILES notation. Like-named read-outs stand apart in the source and are kept apart here.

Turning to `Cc1ncsc1-c1ccc([C@H](C)NC(=O)[C@@H]2C[C@@H](O)CN2C(=O)[C@@H](NC(=O)CCCCCC(=O)N2CCN(CCNc3ccc(S(=O)(=O)NC(=O)c4ccc(N5CCN(CC6=C(c7ccc(Cl)cc7)CC(C)(C)CC6)CC5)cc4Oc4cnc5[nH]ccc5c4)cc3S(=O)(=O)C(F)(F)F)CC2)C(C)(C)C)cc1` [I-97], the IC50 in assay [1] is over 30 µM; in assay [2] (Homo sapiens, MOLT-4, 72 h) it was over 3 µM.

On to `Cc1ncsc1-c1ccc([C@H](C)NC(=O)[C@@H]2C[C@@H](O)CN2C(=O)[C@@H](NC(=O)CCCCCC(=O)N2CCN(c3ccc(-c4ccc(Cl)cc4)c(CN4CCN(c5ccc(C(=O)NS(=O)(=O)c6ccc(NCCCN(C)C)c(S(=O)(=O)C(F)(F)F)c6)c(Oc6cnc7[nH]ccc7c6)c5)CC4)c3)CC2)C(C)(C)C)cc1` [I-99], for which the IC50 in assay [1] was over 30 µM; in assay [2] (Homo sapiens, MOLT-4, 72 h), over 3 µM.

On to `Cc1ncsc1-c1ccc([C@H](C)NC(=O)[C@@H]2C[C@@H](O)CN2C(=O)[C@@H](NC(=O)CCCCCN(CCO)CCCNc2ccc(S(=O)(=O)NC(=O)c3ccc(N4CCN(CC5=C(c6ccc(Cl)cc6)CC(C)(C)CC5)CC4)cc3Oc3cnc4[nH]ccc4c3)cc2S(=O)(=O)C(F)(F)F)C(C)(C)C)cc1` [I-100], for which the IC50 in assay [1] was over 30 µM; in assay [2] (Homo sapiens, MOLT-4, 72 h) it was over 3 µM.

On to `Cc1ncsc1-c1ccc([C@H](C)NC(=O)[C@@H]2C[C@@H](O)CN2C(=O)[C@@H](NC(=O)CCCc2ccc(NCCNc3ccc(S(=O)(=O)NC(=O)c4ccc(N5CCN(CC6=C(c7ccc(Cl)cc7)CC(C)(C)CC6)CC5)cc4Oc4cnc5[nH]ccc5c4)cc3S(=O)(=O)C(F)(F)F)cc2)C(C)(C)C)cc1` [I-101], for which the IC50 in assay [1] is over 30 µM; in assay [2] (Homo sapiens, MOLT-4, 72 h) it was over 3 µM.

Turning to `C#Cc1ccc([C@H](C)NC(=O)[C@@H]2C[C@@H](O)CN2C(=O)[C@@H](NC(=O)CCCCCC(=O)N2CCN(CCCNc3ccc(S(=O)(=O)NC(=O)c4ccc(N5CCN(CC6=C(c7ccc(Cl)cc7)CC(C)(C)CC6)CC5)cc4Oc4cnc5[nH]ccc5c4)cc3S(=O)(=O)C(F)(F)F)CC2)C(C)(C)C)c(OC)c1` [I-103], the IC50 in assay [1] was over 30 µM; in assay [2] (Homo sapiens, MOLT-4, 72 h), 0.1 to 1 µM.

Regarding `C#Cc1ccc(CNC(=O)[C@@H]2C[C@@H](O)CN2C(=O)[C@@H](NC(=O)C2(F)CC2)C(C)(C)C)c(OCCCCCCC(=O)N2CCN(CCCNc3ccc(S(=O)(=O)NC(=O)c4ccc(N5CCN(CC6=C(c7ccc(Cl)cc7)CC(C)(C)CC6)CC5)cc4Oc4cnc5[nH]ccc5c4)cc3S(=O)(=O)C(F)(F)F)CC2)c1` [I-104], the IC50 was over 30 µM in assay [1] and over 3 µM in assay [2] (Homo sapiens, MOLT-4, 72 h).

In the case of `Cc1ncsc1-c1ccc([C@H](C)NC(=O)[C@@H]2C[C@@H](O)CN2C(=O)[C@@H](NC(=O)CCCCCC(=O)N2CC3(CN(CCCNc4ccc(S(=O)(=O)NC(=O)c5ccc(N6CCN(CC7=C(c8ccc(Cl)cc8)CC(C)(C)CC7)CC6)cc5Oc5cnc6[nH]ccc6c5)cc4S(=O)(=O)C(F)(F)F)C3)C2)C(C)(C)C)cc1` [I-107], the IC50 in assay [1] is over 30 µM; in assay [2] (Homo sapiens, MOLT-4, 72 h), 0.1 to 1 µM.

As to `Cc1ncsc1-c1ccc([C@H](C)NC(=O)[C@@H]2C[C@@H](O)CN2C(=O)[C@@H](NC(=O)CCCC(=O)N2CCN(CC[C@H](CSc3ccccc3)Nc3ccc(S(=O)(=O)NC(=O)c4ccc(N5CCC([C@@H](O)c6ccccc6-c6ccc(Cl)cc6)CC5)cc4)cc3S(=O)(=O)C(F)(F)F)CC2)C(C)(C)C)cc1` [I-110], the IC50 in assay [1] is over 30 µM; in assay [2] (Homo sapiens, MOLT-4, 72 h) it was 0.1 to 1 µM.

With `Cc1ncsc1-c1ccc([C@H](C)NC(=O)[C@@H]2C[C@@H](O)CN2C(=O)[C@@H](NC(=O)CCCCCC(=O)N2CCN(Cc3ccc(-c4ccc(Cl)cc4)c([C@H](O)C4CCN(c5ccc(C(=O)NS(=O)(=O)c6ccc(NCCCN(C)C)c(S(=O)(=O)C(F)(F)F)c6)c(Oc6cnc7[nH]ccc7c6)c5)CC4)c3)CC2)C(C)(C)C)cc1` [I-111], the IC50 in assay [1] was over 30 µM; in assay [2] (Homo sapiens, MOLT-4, 72 h) it was over 3 µM.

With `Cc1ncsc1-c1ccc([C@H](C)NC(=O)[C@@H]2C[C@@H](O)CN2C(=O)[C@@H](NC(=O)CCCCCC(=O)N2CCN(Cc3ccc(-c4ccc(Cl)cc4)c([C@@H](O)C4CCN(c5ccc(C(=O)NS(=O)(=O)c6ccc(NCCCN(C)C)c(S(=O)(=O)C(F)(F)F)c6)c(Oc6cnc7[nH]ccc7c6)c5)CC4)c3)CC2)C(C)(C)C)cc1` [I-112], the IC50 was over 30 µM in assay [1] and over 3 µM in assay [2] (Homo sapiens, MOLT-4, 72 h).

`Cc1ncsc1-c1ccc([C@H](C)NC(=O)[C@@H]2C[C@@H](O)CN2C(=O)[C@@H](NC(=O)CNCCCNc2ccc(S(=O)(=O)NC(=O)c3ccc(N4CCN(CC5=C(c6ccc(Cl)cc6)CC(C)(C)CC5)CC4)cc3Oc3cnc4[nH]ccc4c3)cc2S(=O)(=O)C(F)(F)F)C(C)(C)C)cc1` [I-115]: the IC50 in assay [1] was over 30 µM; in assay [2] (Homo sapiens, MOLT-4, 72 h), over 3 µM.

With `Cc1ncsc1-c1ccc([C@H](C)NC(=O)[C@@H]2C[C@@H](O)CN2C(=O)[C@@H](NC(=O)C2CCC3(CC2)CCN(CCCNc2ccc(S(=O)(=O)NC(=O)c4ccc(N5CCN(CC6=C(c7ccc(Cl)cc7)CC(C)(C)CC6)CC5)cc4Oc4cnc5[nH]ccc5c4)cc2S(=O)(=O)C(F)(F)F)CC3)C(C)(C)C)cc1` [I-116], the IC50 in assay [1] was over 30 µM; in assay [2] (Homo sapiens, MOLT-4, 72 h) it was over 3 µM.

Consider `Cc1ncsc1-c1ccc([C@H](C)NC(=O)[C@@H]2C[C@@H](O)CN2C(=O)[C@@H](NC(=O)C#CC2CCN(CCCNc3ccc(S(=O)(=O)NC(=O)c4ccc(N5CCC([C@@H](O)c6ccccc6-c6ccc(Cl)cc6)CC5)cc4Oc4cnc5[nH]ccc5c4)cc3S(=O)(=O)C(F)(F)F)CC2)C(C)(C)C)cc1` [I-117], for which the IC50 was over 30 µM in assay [1] and over 3 µM in assay [2] (Homo sapiens, MOLT-4, 72 h).

Regarding `Cc1ncsc1-c1ccc([C@H](C)NC(=O)[C@@H]2C[C@@H](O)CN2C(=O)[C@@H](NC(=O)CCC(=O)N2CCN(CC[C@H](CSc3ccccc3)Nc3ccc(S(=O)(=O)NC(=O)c4ccc(N5CCC([C@@H](O)c6ccccc6-c6ccc(Cl)cc6)CC5)cc4)cc3S(=O)(=O)C(F)(F)F)CC2)C(C)(C)C)cc1` [I-119], the IC50 in assay [1] is over 30 µM; in assay [2] (Homo sapiens, MOLT-4, 72 h) it was over 3 µM.

In the case of `Cc1ncsc1-c1ccc([C@H](C)NC(=O)[C@@H]2C[C@@H](O)CN2C(=O)[C@@H](NC(=O)C2CCN(c3ccc(NC(=O)c4ccc(-c5ccc(Cl)cc5)c([C@@H](O)C5CCN(c6ccc(C(=O)NS(=O)(=O)c7ccc(N[C@H](CCN(C)CCO)CSc8ccccc8)c(S(=O)(=O)C(F)(F)F)c7)cc6)CC5)c4)cc3)CC2)C(C)(C)C)cc1` [I-123], the IC50 was over 30 µM in assay [1] and over 3 µM in assay [2] (Homo sapiens, MOLT-4, 72 h).

Consider `Cc1ncsc1-c1ccc([C@H](C)NC(=O)[C@@H]2C[C@@H](O)CN2C(=O)[C@@H](NC(=O)CCC2CCN(CCCNc3ccc(S(=O)(=O)NC(=O)c4ccc(N5CCN([C@@H](O)c6ccccc6-c6ccc(Cl)cc6)CC5)cc4Oc4cnc5[nH]ccc5c4)cc3S(=O)(=O)C(F)(F)F)CC2)C(C)(C)C)cc1` [I-128], for which the IC50 in assay [1] was over 30 µM; in assay [2] (Homo sapiens, MOLT-4, 72 h), over 3 µM.

As for `Cc1ncsc1-c1ccc([C@H](C)NC(=O)[C@@H]2C[C@@H](O)CN2C(=O)[C@@H](NC(=O)CCC2CCN(CCCNc3ccc(S(=O)(=O)NC(=O)c4ccc(N5CCN([C@H](O)c6ccccc6-c6ccc(Cl)cc6)CC5)cc4Oc4cnc5[nH]ccc5c4)cc3S(=O)(=O)C(F)(F)F)CC2)C(C)(C)C)cc1` [I-129], the IC50 was over 30 µM in assay [1] and over 3 µM in assay [2] (Homo sapiens, MOLT-4, 72 h).

On to `Cc1ncsc1-c1ccc([C@H](C)NC(=O)[C@@H]2C[C@@H](O)CN2C(=O)[C@@H](NC(=O)CCCCCC(=O)N2CCN(C[C@]3(C)CCC(c4ccc(Cl)cc4)=C(CN4CCN(c5ccc(C(=O)NS(=O)(=O)c6ccc(NCCCN7CCOCC7)c(S(=O)(=O)C(F)(F)F)c6)c(Oc6cnc7[nH]ccc7c6)c5)CC4)C3)CC2)C(C)(C)C)cc1` [I-130], for which the IC50 in assay [1] was over 30 µM; in assay [2] it was 1 to 3 µM.

(Values after US20260092057A1, “BCL-XL/BCL-2 DEGRADERS AND USES THEREOF” (Kymera Therapeutics, Inc., priority 2022, published 2026).)
